Data as given in patent EP1352247B1, “ASSAY METHODS FOR IDENTIFYING COMPOUNDS WHICH MAY PROTECT STRATIFIED SQUAMOUS EPITHELIUM AGAINST DAMAGE BY NOXIOUS SUBSTANCES” (The Administrators of the Tulane Educational Fund, priority 2000, dated 2002).

Columns and labels:
[1] = system: esophageal epithelium; conditions: cited from earlier work
[2] = target: T1, extracellular domain of human Uvomorulin/E-Cadherin (Homo sapiens, UniProt P12830); assay: Human E-cadherin EIA kit: competition with Mab binding to the extracellular domain of E-cadherin; conditions: for % Binding: Mab binding vs vehicle control = 100
T1 construct: the approximately 80 kD extracellular domain of Uvomorulin/E-Cadherin provided in the E-cadherin EIA kit; purchased Zymed Laboratories, San Francisco, CA
T1 sequence (P12830 155-709 limits assumed): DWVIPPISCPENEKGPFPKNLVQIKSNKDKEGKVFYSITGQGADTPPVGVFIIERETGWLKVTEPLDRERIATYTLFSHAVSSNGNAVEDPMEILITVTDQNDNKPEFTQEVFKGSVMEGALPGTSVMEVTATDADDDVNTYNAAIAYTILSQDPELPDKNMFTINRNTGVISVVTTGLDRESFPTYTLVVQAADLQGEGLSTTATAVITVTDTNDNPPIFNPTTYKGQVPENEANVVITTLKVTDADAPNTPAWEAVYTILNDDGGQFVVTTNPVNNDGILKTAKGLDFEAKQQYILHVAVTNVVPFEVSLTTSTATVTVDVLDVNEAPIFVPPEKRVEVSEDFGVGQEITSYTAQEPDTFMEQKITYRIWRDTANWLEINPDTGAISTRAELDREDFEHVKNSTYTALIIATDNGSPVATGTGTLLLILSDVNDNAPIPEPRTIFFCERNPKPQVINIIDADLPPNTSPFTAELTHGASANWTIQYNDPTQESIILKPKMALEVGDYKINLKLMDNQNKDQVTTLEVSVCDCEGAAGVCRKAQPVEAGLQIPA
Excerpt: The kit enables the antigen to be exposed to agents or antibodies prior to exposure to the standard Mab to the extracellular domain of Uvomorulin/E-cadherin. The ability of the agent or antibody to block the binding of the Mab to the extracellular domain of Uvomorulin/E-cadherin can then be used to determine if competition for binding sites on the antigen has occurred. Comparative binding is based on the quantity of binding observed when the Mab to Uvomorulin/E-cadherin is placed in contact with antigen in the absence of prior exposure to test agent or antibody. The experimental control for test agents is vehicle (normal Ringer solution) and for monoclonal or polyclonal antibodies is an equivalent amount of nonspecific immune serum globulin (IgG). The quantity of binding of the Mab to Uvomorulin/E-cadherin to antigen in the absence of test agent or test antibody is labeled as control and whose value is normalized to 100%.
The Human E-cadherin EIA kit (Zymed Laboratories, San Francisco, CA) was used as in the method described in Example 5 to determine binding of test compounds, SITS, SOS, CDDD-1192, CDDD-1193 and 1,3-benzene disulfonic acid (1,3-BDSA) to the approximately 80 kD extracellular domain of Uvomorulin/E-Cadherin provided in the E-cadherin EIA kit. This was done by adding the extracellular domain of human Uvomorulin/E-Cadherin to a solution with varying concentrations of the compounds in the nanomolar to millimolar range or with vehicle (control, normal Ringer solution) for […]. Following incubation for 2 hrs, the solution is added to a solid phase microtiter plate, provided in the EIA kit, to which a mouse monoclonal anti-human Uvomorulin/E-cadherin antibody (Zymed Laboratories, San Francisco, CA) is bound. This permits antigen with epitopes unoccupied by test compound to bind to the plate. After washing the plate with Tris buffer containing 0.1 % Tween-20 (Promega, Madison, Wisconsin) and 5 mM calcium chloride, the second mouse monoclonal anti-human Uvomorulin/E-cadherin antibody labeled with peroxidase is used to tag the bound antigen. After an additional incubation for 1 hr and washing with Tris buffer, the peroxidase is detected with substrate (hydrogen peroxide and tetramethyl-benzidine in buffered solution, as included in the EIA test kit) by incubating for 15 min at room temperature and stopping of the reaction with 1N […]. […] The amount of Uvomorulin/E-cadherin is quantitated by measuring absorbance at 450 nm within an hour following development using an EIA plate reader (Vmax Plate Reader, Molecular Devices, Sunnyvale, CA). The degree of binding of a compound to the extracellular domain of Uvomorulin/E-cadherin is determined by the reduction in antigen detection in the plate exposed to test compound compared to that for the control plate (100%) where no compound was present (Table 2).

[3] = system: rabbit esophageal epithelium
Protocol: Sections of rabbit esophageal epithelium, mounted in Ussing chambers and stabilized for 45 min, were exposed both luminally and serosally to calcium-free solution containing EDTA, 3 mM.
Sections of rabbit esophageal epithelium were mounted in Ussing chambers and exposed luminally to trypsin, 0.01%, in the presence or absence of a calcium-free bathing solution.
Sections of rabbit esophageal epithelium were mounted in Ussing chambers and exposed luminally to either SITS, 4 mM, or vehicle (Ringer) as control for 30 min.

[4] = system: rabbit esophageal epithelium; assay: Junctional resealing (recovery of R after calcium restoration or return to isoosmolality) in Ussing chambers; type: cell-based; conditions: luminal 4 mM for 30 min and during calcium-free period; after restoration of calcium (0 mM SITS), n=3
Excerpt: When calcium-containing (normal Ringer) solution was restored to the bathing solutions after 1, 2, or 4 hrs of calcium-free exposure, there was a progressive return of R toward initial baseline values, with complete reversibility observed for tissue exposed to calcium-free solution for 1 hr and 2 hr exposures and an 80% recovery in R for tissue exposed to calcium-free for 4 hrs within 1 hr of restoring calcium to the baths.
Sections of rabbit esophageal epithelium prepared as in Example 1 were exposed luminally and serosally to a calcium-free solution containing 3 mM EDTA to open the junctions as shown by the progressive decline in R to 60±4% and 65±4% of initial R for experimental and control tissues, respectively, by 2 hrs (n = 8 for each group, p > 0.05). Tissues were then treated luminally for 20 min with either 10 µg/ml of a monoclonal antibody (Mab) to Uvomorulin/E-cadherin (Sigma Chemical, St. Louis, MO) or, as control, to 10 µg/ml of nonspecific immune serum globulin (IgG). Following exposure to Mab or IgG, a calcium-containing (normal Ringer) solution was restored to the bathing solutions and the recovery of R monitored over time.
The intercellular junctions of stratified squamous epithelium can also be opened by exposure to hypertonic saline. […]

**Q.** For `O=S(=O)(O)c1cccc(S(=O)(=O)O)c1` [1,3 BDSA, 1,3-benzene disulfonic acid], which “effect against acid injury” value ([1]; 4 mM, as shown in U.S. Patent No. 5,189,056 and 5,374,537) is on record?
**A.** ineffective against acid injury

**Q.** And the “% Binding” value ([2]; agent 4 mM)?
**A.** 104±3%

**Q.** What does the source list for `O=S(=O)(O)OCC(OS(=O)(=O)O)C(Oc1ccccc1)c1ccc(N=C=S)cc1` (centres unmarked) [CDDD-1192, disodium 3-(4-isothiocyanatophenyl)-3 phenoxypropane-1,2-disulfate]?
**A.** % Binding ([2]; agent 0.4 uM): 103±6%; % Binding ([2]; agent 4 mM): 77±13 %

**Q.** With `O=S(=O)(O)OCC(OS(=O)(=O)O)C(Oc1ccc(N=C=S)cc1)c1ccc(N=C=S)cc1` (centres unmarked) [CDDD-1193, disodium 3-(4-isothiocyanatophenoxy)-3-(4-isothiocyanatophenyl)propane-1,2-disulfate] as the molecule, how does the “% Binding” value ([2]; agent 40 nM) read?
**A.** 110±6%

**Q.** What about the “% Binding” value ([2]; agent 40 uM) of the same molecule?
**A.** 83±3 %

**Q.** And the “% Binding” value ([2]; agent 4 mM)?
**A.** 38±0.75 %

**Q.** Which “effect on R” value ([3]; 3 mM alone, over the described time frame (up to 4 hrs)) does the source give for `O=C(O)CN(CCN(CC(=O)O)CC(=O)O)CC(=O)O` [EDTA] here?
**A.** no effect on R

**Q.** Which results are given for `CC(=O)Nc1ccc(C=Cc2ccc(N=C=S)cc2S(=O)(=O)O)c(S(=O)(=O)O)c1` [SITS, 4-acetamido-4'-isothiocyano-2,2'-stilbene disulfonate]?
**A.** recovery of R [4]: 75±3%; % Binding ([2]; agent 40 uM): 77±3 %; % Binding ([2]; agent 4 mM): 26±3 %; % Binding ([2]; agent 8 mM): 20±3 %; R declined to ([3]; calcium-free solution (3 mM EDTA) with 4 mM SITS, over 2 hr): 68±3%

**Q.** Which “protection against acid-induced injury, reversibility” value [1] does the source give for `O=S(=O)(O)OC[C@H]1O[C@@](COS(=O)(=O)O)(O[C@H]2O[C@H](COS(=O)(=O)O)[C@@H](OS(=O)(=O)O)[C@H](OS(=O)(=O)O)[C@H]2OS(=O)(=O)O)[C@@H](OS(=O)(=O)O)[C@@H]1OS(=O)(=O)O` [SOS, sucrose octasulfate] here?
**A.** irreversibly protect

**Q.** What about the “binding to the extracellular domain of Uvomorulin/E-cadherin / inhibition of Mab binding (in words)” value [2] of the same molecule?
**A.** dose-dependently binds

**Q.** And the “% Binding” value ([2]; agent 4 mM)?
**A.** 83±0.3 %

**Q.** And the “% Binding” value ([2]; agent 10 mM)?
**A.** 76±0.3 %
